Results published in ChEMBL document CHEMBL1132633, “Secondary structure peptide mimetics: design, synthesis, and evaluation of beta-strand mimetic thrombin inhibitors” (J Med Chem, 1999).
One block for each compound: values may come before it.

Assays:
Prothrombin [1] = target: T1, Prothrombin (Homo sapiens, UniProt P00734)
Description: Inhibitory constant on rate against thrombin.

Coagulation factor X [2] = target: T2, Coagulation factor X (Homo sapiens, UniProt P00742); test: Inhibitory concentration against Coagulation factor Xa
Prothrombin [3] = target: T1, Prothrombin; test: Inhibitory concentration against thrombin.
[4] = target: Urokinase-type plasminogen activator (Homo sapiens, UniProt P00749); test: Inhibitory concentration against Urokinase-type plasminogen activator
Plasminogen [5] = target: T3, Plasminogen (Rattus norvegicus, UniProt Q01177); test: Inhibitory concentration against plasmin
Coagulation factor VII [6] = target: T4, Coagulation factor VII (Homo sapiens, UniProt P08709); test: Inhibitory concentration against coagulation factor VIIa
T4 sequence (P08709 whole entry): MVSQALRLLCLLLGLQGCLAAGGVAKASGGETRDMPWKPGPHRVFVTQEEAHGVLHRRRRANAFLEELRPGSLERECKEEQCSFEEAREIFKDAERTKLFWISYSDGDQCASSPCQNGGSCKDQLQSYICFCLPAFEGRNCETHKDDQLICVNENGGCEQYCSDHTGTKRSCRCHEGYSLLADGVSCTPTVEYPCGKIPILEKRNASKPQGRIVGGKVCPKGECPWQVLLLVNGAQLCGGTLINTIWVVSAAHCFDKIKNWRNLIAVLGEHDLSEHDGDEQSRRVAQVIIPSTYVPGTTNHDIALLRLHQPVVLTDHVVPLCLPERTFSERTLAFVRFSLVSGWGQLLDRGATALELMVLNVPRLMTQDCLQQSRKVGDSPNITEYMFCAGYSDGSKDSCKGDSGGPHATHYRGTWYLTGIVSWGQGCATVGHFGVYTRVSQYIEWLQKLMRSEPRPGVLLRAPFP

[7] = target: T5, Tissue-type plasminogen activator (Homo sapiens, UniProt P00750); test: Inhibitory concentration against Tissue type plasminogen activator
Plasminogen [8] = target: T3, Plasminogen; test: Inhibition constant against plasmin
Coagulation factor VII [9] = target: T4, Coagulation factor VII; test: Inhibition constant against coagulation factor VIIa
Coagulation factor X [10] = target: T2, Coagulation factor X; test: Inhibition constant against Coagulation factor Xa
Serine protease 1 = target: T6, Serine protease 1 (Bos taurus, UniProt P00760); test: Inhibitory concentration against trypsin.
T6 sequence (P00760 whole entry): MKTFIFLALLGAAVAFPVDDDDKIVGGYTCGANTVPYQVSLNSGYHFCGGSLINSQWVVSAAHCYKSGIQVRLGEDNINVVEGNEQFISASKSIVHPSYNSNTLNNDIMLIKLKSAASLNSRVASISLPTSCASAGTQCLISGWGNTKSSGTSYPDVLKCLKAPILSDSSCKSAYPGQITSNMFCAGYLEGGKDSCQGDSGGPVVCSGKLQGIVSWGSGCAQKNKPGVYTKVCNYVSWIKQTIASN

[11] = target: T5, Tissue-type plasminogen activator; test: Compound was evaluated for the inhibition of Tissue type plasminogen activator (tissue plasminogen activator)

T2 sequence (P00742 41-179 limits assumed): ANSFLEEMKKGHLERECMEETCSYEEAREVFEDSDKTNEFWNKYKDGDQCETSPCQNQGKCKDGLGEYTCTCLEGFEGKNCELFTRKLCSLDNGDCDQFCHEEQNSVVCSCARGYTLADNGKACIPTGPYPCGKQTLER
T2 sequence (P00742 235-488 limits assumed): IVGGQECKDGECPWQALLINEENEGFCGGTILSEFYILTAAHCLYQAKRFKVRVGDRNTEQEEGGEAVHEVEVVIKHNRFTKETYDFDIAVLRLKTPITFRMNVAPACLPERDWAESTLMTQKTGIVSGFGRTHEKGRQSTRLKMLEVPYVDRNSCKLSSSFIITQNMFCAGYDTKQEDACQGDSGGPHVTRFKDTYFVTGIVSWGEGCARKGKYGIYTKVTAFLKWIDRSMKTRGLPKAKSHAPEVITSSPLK
T3 sequence (Q01177 97-581 limits assumed): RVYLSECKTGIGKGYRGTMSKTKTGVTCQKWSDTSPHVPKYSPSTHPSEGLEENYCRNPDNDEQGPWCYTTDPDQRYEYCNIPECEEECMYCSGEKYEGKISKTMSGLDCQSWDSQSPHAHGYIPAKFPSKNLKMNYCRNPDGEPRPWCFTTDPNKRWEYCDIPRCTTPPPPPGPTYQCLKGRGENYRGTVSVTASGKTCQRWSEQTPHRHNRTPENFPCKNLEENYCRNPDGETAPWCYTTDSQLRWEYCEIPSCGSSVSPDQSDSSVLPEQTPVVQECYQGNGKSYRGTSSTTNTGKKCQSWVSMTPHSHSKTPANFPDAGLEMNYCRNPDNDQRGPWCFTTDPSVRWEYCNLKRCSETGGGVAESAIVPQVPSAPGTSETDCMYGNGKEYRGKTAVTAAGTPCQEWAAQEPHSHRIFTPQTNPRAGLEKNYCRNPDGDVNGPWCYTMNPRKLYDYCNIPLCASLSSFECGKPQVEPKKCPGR
T3 sequence (Q01177 582-812 limits assumed): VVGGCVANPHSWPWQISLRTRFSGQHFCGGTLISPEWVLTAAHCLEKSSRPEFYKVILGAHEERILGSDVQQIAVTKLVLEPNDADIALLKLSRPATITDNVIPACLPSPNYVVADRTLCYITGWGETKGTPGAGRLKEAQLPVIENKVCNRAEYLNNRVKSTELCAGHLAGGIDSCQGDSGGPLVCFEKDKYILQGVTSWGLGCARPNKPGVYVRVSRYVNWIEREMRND
T5 sequence (P00750 whole entry): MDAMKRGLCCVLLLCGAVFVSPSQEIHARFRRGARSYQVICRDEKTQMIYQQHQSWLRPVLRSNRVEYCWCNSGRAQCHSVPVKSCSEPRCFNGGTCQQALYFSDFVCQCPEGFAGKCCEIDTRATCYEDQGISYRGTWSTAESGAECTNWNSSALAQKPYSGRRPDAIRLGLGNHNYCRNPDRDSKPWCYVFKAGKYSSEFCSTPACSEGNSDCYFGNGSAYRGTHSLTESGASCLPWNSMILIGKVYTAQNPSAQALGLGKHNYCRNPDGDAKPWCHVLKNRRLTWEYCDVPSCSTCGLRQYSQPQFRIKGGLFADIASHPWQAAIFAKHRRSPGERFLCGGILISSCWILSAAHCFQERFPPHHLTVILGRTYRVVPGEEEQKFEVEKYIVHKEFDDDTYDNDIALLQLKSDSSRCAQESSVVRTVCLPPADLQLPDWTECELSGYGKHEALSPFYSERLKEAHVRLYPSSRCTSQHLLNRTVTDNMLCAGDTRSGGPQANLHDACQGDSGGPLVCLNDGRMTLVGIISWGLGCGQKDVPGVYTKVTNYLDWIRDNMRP

- k on (Prothrombin [1]): 250000 M⁻¹ s⁻¹
SMILES: COc1ccc(CCNC(=O)C(=O)[C@H](CCCN=C(N)N)NC(=O)[C@@H]2CCN3CC[C@@](N)(Cc4ccccc4)CN23)cc1

- k on (Prothrombin [1]): 380000 M⁻¹ s⁻¹
- Ki (Prothrombin [3]): 0.31 nM
SMILES: N=C(N)NCCC[C@H](NC(=O)[C@@H]1CCN2CC[C@@](N)(Cc3ccccc3)CN12)C(=O)C(=O)NCCc1ccc(Cl)cc1

- k on (Prothrombin [1]): 640000 M⁻¹ s⁻¹
- Ki (Prothrombin [3]): 0.071 nM
- Ki (Serine protease 1): 0.027 nM
SMILES: N=C(N)NCCC[C@H](NC(=O)[C@@H]1CCN2CC[C@@](N)(Cc3ccccc3)CN12)C(=O)C(=O)NCCc1ccccc1

- k on (Prothrombin [1]): 880000 M⁻¹ s⁻¹
SMILES: N=C(N)NCCC[C@H](NC(=O)[C@@H]1CCN2CC[C@@](N)(Cc3ccccc3)CN12)C(=O)C(=O)NCc1ccccc1

- Ki (Prothrombin [3]): 0.45 nM
SMILES: COc1ccc(CCNC(=O)C(=O)[C@H](CCCNC(=N)N)NC(=O)[C@@H]2CCN3CC[C@@](N)(Cc4ccccc4)CN23)cc1

The remaining lines, values behind:

SMILES: N=C(N)NCCC[C@H](NC(=O)[C@@H]1CCC2CC[C@@](N)(Cc3ccccc3)CN21)C(=O)c1nc2ccccc2s1 (stereo in doubt; form 2) [listing 1 of 2 here]
- k on (Prothrombin [1]): > 1e+07 M⁻¹ s⁻¹

SMILES: N=C(N)NCCC[C@@H](CCl)NC(=O)[C@@H]1CCN2CC[C@@](N)(Cc3ccccc3)CN12
- k on (Prothrombin [1]): 2.4e+06 M⁻¹ s⁻¹
- IC50 (Coagulation factor X [2]): 385 nM
- IC50 (Prothrombin [3]): 1.2 nM
- IC50 [4]: 927 nM
- IC50 (Plasminogen [5]): 978 nM
- IC50 (Coagulation factor VII [6]): 140 nM
- IC50 [7]: 632 nM

SMILES: N=C(N)NCCC[C@H](NC(=O)[C@@H]1CCN2CC[C@@](N)(Cc3ccccc3)CN12)C(=O)c1nc2ccccc2s1
- k on (Prothrombin [1]): > 1e+07 M⁻¹ s⁻¹
- Ki (Plasminogen [8]): 415 nM
- Ki (Coagulation factor VII [9]): 270 nM
- Ki [4]: 600 nM
- Ki (Coagulation factor X [10]): 270 nM
- Ki [7]: 495 nM
- Ki (Serine protease 1): 0.64 nM

SMILES: N=C(N)NCCC[C@H](NC(=O)[C@@H]1CCC2CC[C@@](N)(Cc3ccccc3)CN21)C(=O)c1nc2ccccc2s1 (stereo in doubt; form 1) [listing 1 of 2 here]
- Ki (Prothrombin [3]): 10 nM

SMILES: NC(N)=NCCC[C@@H](CCl)NC(=O)[C@@H]1CCCN1C(=O)[C@H](N)Cc1ccccc1
- IC50 [11]: 106 nM
- IC50 (Coagulation factor X [2]): 165 nM
- IC50 (Prothrombin [3]): 1.5 nM
- IC50 [4]: 508 nM
- IC50 (Plasminogen [5]): 699 nM
- IC50 (Coagulation factor VII [6]): 200 nM

SMILES: N=C(N)NCCC[C@H](NC(=O)[C@@H]1CCN2CC[C@@](N)(Cc3ccccc3)CN12)C(=O)c1nccs1
- k on (Prothrombin [1]): > 1e+07 M⁻¹ s⁻¹
- Ki (Prothrombin [3]): 2.4 nM

SMILES: N=C(N)NCCC[C@H](NC(=O)[C@@H]1CCC2CC[C@@](N)(Cc3ccccc3)CN21)C(=O)c1nc2ccccc2s1 (stereo in doubt; form 2) [listing 2 of 2 here]
- Ki (Plasminogen [8]): 251 nM
- Ki (Coagulation factor VII [9]): 200 nM
- Ki (Prothrombin [3]): 0.85 nM
- Ki [4]: 335 nM
- Ki (Coagulation factor X [10]): 19.3 nM
- Ki [7]: 93 nM
- Ki (Serine protease 1): 0.23 nM

SMILES: NCCCC[C@H](NC(=O)[C@@H]1CCN2CC[C@@](N)(Cc3ccccc3)CN12)C(=O)C(=O)NCc1ccccc1
- Ki (Prothrombin [3]): 2000 nM

SMILES: N=C(N)NCCC[C@H](NC(=O)[C@@H]1CCC2CC[C@@](N)(Cc3ccccc3)CN21)C(=O)c1nc2ccccc2s1 (stereo in doubt; form 1) [listing 2 of 2 here]
- k on (Prothrombin [1]): > 1e+07 M⁻¹ s⁻¹
